Source: patent publication US5684018A, “Acyloxyisopropyl carbamates as prodrugs for amine drugs” (Merck & Co., Inc., priority 1994, dated 1997)

Legend:
[1] = Regeneration of the parent drug by rat plasma hydrolysis of the prodrug; assay type: in vitro ADME; conditions: 37° C., initial prodrug concentration 6.3×10^-5 M, n=2, HPLC
Description: The rate of hydrolysis of the acetoxyisopropyl carbamate prodrug of [3(R)-2-(piperidine-4-yl)ethyl]-2-piperidone-1-[(3R)-methyl-5-ketopentanoic acid]by plasma enzymes was studied by measuring the formation of the parent amine drug at 37° C. in rat plasma. The reaction was initiated by adding an aqueous solution of the carbamate prodrug to the reaction medium pre-equilibrated at 37° C. in a thermostated water bath. The initial concentration of the prodrug in rat plasma was 6.3×10^-5 M. Samples (100 μl) were withdrawn at intervals and mixed with saturated ammonium sulfate (200 μl), vortex mixed for 10 seconds and centrifuged for 5 minutes at 14,000 g to precipitate plasma proteins. The supernatant was injected directly and analyzed by HPLC on a 20 cm Brownlee Spheri-5 RP-18 column combined with a similar 3 cm guard column. The mobile phase used for the analysis was 0.01M K2 HPO4 buffer (adjusted to pH 6.5 with phosphoric acid) containing 3% acetonitrile at a flow rate of 1 mL/min. The retention time under these conditions for the amine drug was approximately 15 minutes. The concentration of the compounds was measured at 210 nm using a variable wavelength. UV detector.

[2] = oral administration to rats; cited from earlier work

Row | SMILES | half-life at 63 µM [1] [min] | regeneration of the parent drug [2]
1 | CC(=O)OC(C)(C)OC(=O)N1CCC(CC[C@@H]2CCCN(CC(=O)N[C@H](C)CC(=O)O)C2=O)CC1 [acetoxyisopropyl carbamate prodrug, {3(R)-2-{1-[2(Acetoxy)isopropoxycarbonylpiperidine-4yl]-ethyl}piperidone-1}-acetyl-3(R)-methyl-β-alanine] | 32 ± 6 | –
2 | CCn1cc(C(=O)O)c(=O)c2cc(F)c(N3CCN(Cc4oc(=O)oc4C)CC3)cc21 [alkylated nofloxacin] | – | regenerated the parent drag
